Laboratory results taken from ChEMBL document CHEMBL3046912, “Effectiveness of 1,3-dichloropropene as an alternative to methyl bromide in rotations of tomato (Solanum lycopersicum) and cucumber (Cucumis sativus) in China” (2012).

What was measured:
Assay type in all cases: functional
Solanum lycopersicum [1] = assay: Increase in plant height of Solanum lycopersicum (tomato) exposed to 180 L/ha compound fumigation treatment measured 50 days after compound treatment (reference value: 86.2 cm)
Solanum lycopersicum [2] = assay: Increase in plant height of Solanum lycopersicum (tomato) exposed to 120 L/ha compound fumigation treatment measured 50 days after compound treatment (reference value: 86.2 cm)
Solanum lycopersicum [3] = assay: Increase in plant height of Solanum lycopersicum (tomato) exposed to 90 L/ha compound fumigation treatment measured 50 days after compound treatment (reference value: 86.2 cm)
Cucumis sativus [4] = assay: Increase in plant height of Cucumis sativus (cucumber) exposed to 90 L/ha compound fumigation treatment measured 30 days after compound treatment (reference value: 85.6 cm)
Cucumis sativus [5] = assay: Increase in plant height of Cucumis sativus (cucumber) exposed to 180 L/ha compound fumigation treatment measured 50 days after compound treatment (reference value: 103.2 cm)
Cucumis sativus [6] = assay: Increase in plant height of Cucumis sativus (cucumber) exposed to 120 L/ha compound fumigation treatment measured 50 days after compound treatment (reference value: 103.2 cm)
Cucumis sativus [7] = assay: Increase in plant height of Cucumis sativus (cucumber) exposed to 90 L/ha compound fumigation treatment measured 50 days after compound treatment (reference value: 103.2 cm)
Capsella bursa-pastoris [8] = assay: Herbicidal activity against Capsella bursa-pastoris in cucumber plants fields exposed to 90 L/ha compound fumigation treatment assessed as hand weeding time per plot (reference value: 258.3 hr/ha)
Capsella bursa-pastoris [9] = assay: Herbicidal activity against Capsella bursa-pastoris in cucumber plants fields exposed to 120 L/ha compound fumigation treatment assessed as hand weeding time per plot (reference value: 258.3 hr/ha)
Digitaria sanguinalis [10] = assay: Herbicidal activity against Digitaria sanguinalis (hairy crabgrass) in cucumber plants fields exposed to 180 L/ha compound fumigation treatment assessed as hand weeding time per plot (reference value: 258.3 hr/ha)
Capsella bursa-pastoris [11] = assay: Herbicidal activity against Capsella bursa-pastoris in cucumber plants fields exposed to 180 L/ha compound fumigation treatment assessed as hand weeding time per plot (reference value: 258.3 hr/ha)
Solanum lycopersicum [12] = assay: Increase in crop yield in Cucumis sativus (cucumber) plants exposed to 120 L/ha compound fumigation treatment assessed as marketable yield fruit yield (reference value: 65.3 ton/ha)
Solanum lycopersicum [13] = assay: Increase in crop yield in Cucumis sativus (cucumber) plants exposed to 90 L/ha compound fumigation treatment assessed as marketable yield fruit yield (reference value: 65.3 ton/ha)
Solanum lycopersicum [14] = assay: Increase in crop yield in Solanum lycopersicum (tomato) plants exposed to 180 L/ha compound fumigation treatment assessed as marketable yield fruit yield (reference value: 51.3 ton/ha)
Capsella bursa-pastoris [15] = assay: Herbicidal activity against Capsella bursa-pastoris in tomato plants fields exposed to 90 L/ha compound fumigation treatment assessed as hand weeding time per plot (reference value: 243.3 hr/ha)
Digitaria sanguinalis [16] = assay: Herbicidal activity against Digitaria sanguinalis (hairy crabgrass) in tomato plants fields exposed to 120 L/ha compound fumigation treatment assessed as hand weeding time per plot (reference value: 243.3 hr/ha)
Capsella bursa-pastoris [17] = assay: Herbicidal activity against Capsella bursa-pastoris in tomato plants fields exposed to 120 L/ha compound fumigation treatment assessed as hand weeding time per plot (reference value: 243.3 hr/ha)
Arenaria serpyllifolia [18] = assay: Herbicidal activity against Arenaria serpyllifolia in tomato plants fields exposed to 180 L/ha compound fumigation treatment assessed as hand weeding time per plot (reference value: 243.3 hr/ha)
Capsella bursa-pastoris [19] = assay: Herbicidal activity against Capsella bursa-pastoris in tomato plants fields exposed to 180 L/ha compound fumigation treatment assessed as hand weeding time per plot (reference value: 243.3 hr/ha)
Solanum lycopersicum [20] = assay: Increase in crop yield in Cucumis sativus (cucumber) plants exposed to 90 L/ha compound fumigation treatment assessed as medium fruit yield (reference value: 38.6 ton/ha)
Solanum lycopersicum [21] = assay: Increase in crop yield in Cucumis sativus (cucumber) plants exposed to 120 L/ha compound fumigation treatment assessed as medium fruit yield (reference value: 38.6 ton/ha)
Capsella bursa-pastoris [22] = assay: Herbicidal activity against Capsella bursa-pastoris in cucumber plants fields exposed to 180 L/ha compound fumigation treatment assessed as hand weeding time per plot relative to untreated control
Arenaria serpyllifolia [23] = assay: Herbicidal activity against Arenaria serpyllifolia in tomato plants fields exposed to 120 L/ha compound fumigation treatment assessed as hand weeding time per plot relative to untreated control
Capsella bursa-pastoris [24] = assay: Herbicidal activity against Capsella bursa-pastoris in tomato plants fields exposed to 90 L/ha compound fumigation treatment assessed as hand weeding time per plot relative to untreated control
Capsella bursa-pastoris [25] = assay: Herbicidal activity against Capsella bursa-pastoris in tomato plants fields exposed to 120 L/ha compound fumigation treatment assessed as hand weeding time per plot relative to untreated control
Solanum lycopersicum [26] = assay: Increase in crop yield in Cucumis sativus (cucumber) plants exposed to 180 L/ha compound fumigation treatment assessed as medium fruit yield (reference value: 38.6 ton/ha)
Solanum lycopersicum [27] = assay: Increase in crop yield in Solanum lycopersicum (tomato) plants exposed to 120 L/ha compound fumigation treatment assessed as medium fruit yield (reference value: 32.3 ton/ha)
Solanum lycopersicum [28] = assay: Increase in crop yield in Solanum lycopersicum (tomato) plants exposed to 90 L/ha compound fumigation treatment assessed as medium fruit yield (reference value: 32.3 ton/ha)
Solanum lycopersicum [29] = assay: Increase in crop yield in Solanum lycopersicum (tomato) plants exposed to 180 L/ha compound fumigation treatment assessed as medium fruit yield (reference value: 32.3 ton/ha)
Solanum lycopersicum [30] = assay: Increase in crop yield in Cucumis sativus (cucumber) plants exposed to 90 L/ha compound fumigation treatment assessed as large fruit yield (reference value: 19.5 ton/ha)
Capsella bursa-pastoris [31] = assay: Herbicidal activity against Capsella bursa-pastoris in cucumber plants fields exposed to 120 L/ha compound fumigation treatment assessed as hand weeding time per plot relative to untreated control
Solanum lycopersicum [32] = assay: Increase in crop yield in Solanum lycopersicum (tomato) plants exposed to 180 L/ha compound fumigation treatment assessed as large fruit yield (reference value: 15.2 ton/ha)
Solanum lycopersicum [33] = assay: Increase in crop yield in Cucumis sativus (cucumber) plants exposed to 90 L/ha compound fumigation treatment assessed as extra-large fruit yield (reference value: 7.2 ton/ha)
Solanum lycopersicum [34] = assay: Increase in crop yield in Cucumis sativus (cucumber) plants exposed to 180 L/ha compound fumigation treatment assessed as extra-large fruit yield (reference value: 7.2 ton/ha)
Arenaria serpyllifolia [35] = assay: Herbicidal activity against Arenaria serpyllifolia in cucumber plants fields exposed to 90 L/ha compound fumigation treatment assessed as hand weeding time per plot relative to untreated control
Digitaria sanguinalis [36] = assay: Herbicidal activity against Digitaria sanguinalis (hairy crabgrass) in cucumber plants fields exposed to 90 L/ha compound fumigation treatment assessed as hand weeding time per plot relative to untreated control
Arenaria serpyllifolia [37] = assay: Herbicidal activity against Arenaria serpyllifolia in cucumber plants fields exposed to 120 L/ha compound fumigation treatment assessed as hand weeding time per plot relative to untreated control

Cl/C=C/CCl [1,3-DICHLOROPROPENE]
Activity (Solanum lycopersicum [1]): 117.8 cm | Activity (Solanum lycopersicum [2]): 108.6 cm | Activity (Solanum lycopersicum [3]): 98.3 cm | Activity (Cucumis sativus [4]): 92.6 cm | Activity (Cucumis sativus [5]): 130.7 cm | Activity (Cucumis sativus [6]): 120.5 cm | Activity (Cucumis sativus [7]): 112.3 cm | Time (Capsella bursa-pastoris [8]): 90.5 hr/ha | Time (Capsella bursa-pastoris [9]): 74.4 hr/ha | Time (Digitaria sanguinalis [10]): 62.3 hr/ha | Time (Capsella bursa-pastoris [11]): 62.3 hr/ha | Crop_yield (Solanum lycopersicum [12]): 89.1 tons/ha | Crop_yield (Solanum lycopersicum [13]): 84 tons/ha | Crop_yield (Solanum lycopersicum [14]): 76.3 tons/ha | Time (Capsella bursa-pastoris [15]): 85.6 hr/ha | Time (Digitaria sanguinalis [16]): 66.4 hr/ha | Time (Capsella bursa-pastoris [17]): 66.4 hr/ha | Time (Arenaria serpyllifolia [18]): 55.6 hr/ha | Time (Capsella bursa-pastoris [19]): 55.6 hr/ha | Crop_yield (Solanum lycopersicum [20]): 47.7 tons/ha | Crop_yield (Solanum lycopersicum [21]): 49.1 tons/ha | Activity (Capsella bursa-pastoris [22]): 45% | Activity (Arenaria serpyllifolia [23]): 45% | Activity (Capsella bursa-pastoris [24]): 45% | Activity (Capsella bursa-pastoris [25]): 45% | Crop_yield (Solanum lycopersicum [26]): 52.3 tons/ha | Crop_yield (Solanum lycopersicum [27]): 42.5 tons/ha | Crop_yield (Solanum lycopersicum [28]): 38.7 tons/ha | Crop_yield (Solanum lycopersicum [29]): 45.3 tons/ha | Crop_yield (Solanum lycopersicum [30]): 24.8 tons/ha | Activity (Capsella bursa-pastoris [31]): 45% | Crop_yield (Solanum lycopersicum [32]): 22.6 tons/ha | Crop_yield (Solanum lycopersicum [33]): 11.5 tons/ha | Crop_yield (Solanum lycopersicum [34]): 14.8 tons/ha | Activity (Arenaria serpyllifolia [35]): 45% | Activity (Digitaria sanguinalis [36]): 45% | Activity (Arenaria serpyllifolia [37]): 45%
